How the values were obtained:
[1] = tested on: adjuvant arthritis induced in rats; experiment: adjuvant arthritis analgesic bioassay (tail pinch / foot bend squeak response); format: in vivo, Sprague-Dawley rats
Text: Since analgesic tests using intact animals are not sensitive enough to detect the analgesic activity of nonsteroidal anti-inflammatory compounds, the analgesic bioassay employed utilized inflammatory sensitization procedures, specifically adjuvant arthritis. Adjuvant arthritis induced in rats, the animals used in the bioassay, resembles rheumatoid arthritis in man with respect to the manifestation of inflammation and hyperalgesia. When the affected joints of rats with adjuvant arthritis are subjected to a gentle manipulation, preferably by extending the joint, the rats respond by squeaking, which is a definite and reproducible sign of algesia. The ability of the tested compounds to suppress this squeaking response was an accurate measure of the analgesic activity of the tested compounds.
In accordance with the adjuvant arthritis bioassay used to evaluate the analgesic activity of the combinations of compounds of the present invention, young adult Sprague-Dawley rats of either sex are rendered hyperalgesic by injection of dessicated Mycobacterium- butyricum suspended in light mineral oil (Freund's adjuvant). The mycobacteria are ground in a mortar, suspended in the oil, and sterilized in an autoclave. Each animal receives 0.5 mg of the bacteria in 0.1 ml of oil, injected subcutaneously through a 21-gauge needle into the distal third of the tail.
The animals can subsequently be used in two ways for testing the analgesic action of drugs. The day after the injection of adjuvant, the tail is found to be sensitive to touch. Approximately 16 hours after the injection, the experimenter tests the animals for the presence of hyperalgesia. This is done by holding the animal in one hand. With the thumb and forefinger of the other hand, the observer applies gentle pressure to the tail about 2.5 cm proximal to the point where the needle has been inserted. This gentle pressure is repeated at 5-sec intervals. If the rat endures five such gentle presses without emitting more than one "squeak", analgesia is considered to be present and a score of + is assigned. Two or more squeaks earns a rating of 0, or no analgesia. Before being assigned to an experiment, animals are screened and only those with the 0 rating are used.
The hyperalgesic animals are assigned randomly to drug treatments and one of the treatments is always the vehicle without the drug (placebo group). […] […] This entire procedure may be referred to as "tail pinch" .technique. Alternatively, an apparatus for applying pressure to the tail may be employed and the "squeak threshold" determined before and after drug.
The adjuvant-injected animals, if left undisturbed, develop severe arthritis which becomes especially manifest in about two weeks. […] This "foot bend" technique yields drug responses essentially identical with those obtained by the "tail pinch" procedure.
For a further description of this bioassay and its significance, reference is made to Kuzuma and Kawai, "Evaluation of Analgesic Agents in Rats with Adjuvant Arthritis", Chem. Pharm. Bull., 23 (6) 1184-1191 (1975).

[2] = tested on: female albino mice (Carworth CF-1); experiment: in vivo; format: in vivo; settings: Group I: Diflunisal 400 mg./kg. (100 %LD50) alone; oral; 20 tested; 14 days
Method: Measurements of the relative safety of the components and of the combination were carried out using acute oral toxicity studies in female mice. Randomly selected female albino mice (Carworth CF-1) weighing from 18 to 24 grams, and 6 to 7 weeks old, were used. The LD50 value for each drug was estimated from acute oral dose-response curves previously established. The following dose regimen was utilized:
The preparations were administered by gastric intubation using a metal catheter attached to a springe. The various doses were administered randomly with 20 mice per group. Food was withheld one to two hours before and three hours following drug treatment. Water was available at all times. […] Body weights were taken pretest and on days 7 and 14.

O=C(O)c1cc(-c2ccc(F)cc2F)ccc1O [Diflunisal, 2-hydroxy-5-(2',4'-difluorophenyl)benzoic acid]
Number of Rats with Analgesia ([1]; 1/2 h after administration, dose 5 mg./kg., 8 rats per dose): 0
Number of Rats with Analgesia ([1]; 1/2 h after administration, dose 10 mg./kg., 8 rats per dose): 0
Percent of Rats with Analgesia Diflunisal Alone ([1]; 1 Hrs. after drug, Diflunisal 4 mg./kg., 8 rats per dose): 0%
Percent of Rats with Analgesia Diflunisal Alone ([1]; 1 Hrs. after drug, Diflunisal 4 mg./kg., 10 rats per dose): 0%
Percent of Rats with Analgesia Diflunisal Alone ([1]; 1 Hrs. after drug, Diflunisal 8 mg./kg., 8 rats per dose): 0%
Percent of Rats with Analgesia Diflunisal Alone ([1]; 1 Hrs. after drug, Diflunisal 10 mg./kg., 8 rats per dose): 0%
Percent of Rats with Analgesia Diflunisal Alone ([1]; 1 Hrs. after drug, Diflunisal 16 mg./kg., 8 rats per dose): 0%
Percent of Rats with Analgesia Diflunisal Alone ([1]; 2 Hrs. after drug, Diflunisal 2 mg./kg., 10 rats per dose): 20%
Percent of Rats with Analgesia Diflunisal Alone ([1]; 3 Hrs. after drug, Diflunisal 4 mg./kg., 10 rats per dose): 0%
Percent of Rats with Analgesia Diflunisal Alone ([1]; 3 Hrs. after drug, Diflunisal 5 mg./kg., 8 rats per dose): 25%
Percent of Rats with Analgesia Diflunisal Alone ([1]; 3 Hrs. after drug, Diflunisal 8 mg./kg., 10 rats per dose): 50%
Percent of Rats with Analgesia Diflunisal Alone ([1]; 4 Hrs. after drug, Diflunisal 2 mg./kg., 10 rats per dose): 0%
Percent of Rats with Analgesia Diflunisal Alone ([1]; 4 Hrs. after drug, Diflunisal 4 mg./kg., 10 rats per dose): 0%
Percent of Rats with Analgesia Diflunisal Alone ([1]; 4 Hrs. after drug, Diflunisal 5 mg./kg., 8 rats per dose): 10%
Percent of Rats with Analgesia Diflunisal Alone ([1]; 4 Hrs. after drug, Diflunisal 8 mg./kg., 10 rats per dose): 30%
Percent of Rats with Analgesia Diflunisal Alone ([1]; 5 Hrs. after drug, Diflunisal 5 mg./kg., 8 rats per dose): 0%
Percent of Rats with Analgesia Diflunisal Alone ([1]; 5 Hrs. after drug, Diflunisal 8 mg./kg., 8 rats per dose): 0%
Percent of Rats with Analgesia Diflunisal Alone ([1]; 6 Hrs. after drug, Diflunisal 8 mg./kg., 8 rats per dose): 0%
Percent of Rats with Analgesia Diflunisal Alone ([1]; 6 Hrs. after drug, Diflunisal 10 mg./kg., 8 rats per dose): 0%
Number of Rats with Analgesia ([1]; 1 h after administration, dose 2 mg./kg., 10 rats per dose): 2
Number of Rats with Analgesia ([1]; 1 h after administration, dose 4 mg./kg., 8 rats per dose): 0
Number of Rats with Analgesia ([1]; 1 h after administration, dose 4 mg./kg., 10 rats per dose): 0
Number of Rats with Analgesia ([1]; 1 h after administration, dose 5 mg./kg., 8 rats per dose): 0
Number of Rats with Analgesia ([1]; 1 h after administration, dose 8 mg./kg., 8 rats per dose): 0
Number of Rats with Analgesia ([1]; 1 h after administration, dose 8 mg./kg., 10 rats per dose): 4
Number of Rats with Analgesia ([1]; 1 h after administration, dose 10 mg./kg., 8 rats per dose): 0
Number of Rats with Analgesia ([1]; 1 h after administration, dose 16 mg./kg., 8 rats per dose): 0
Number of Rats with Analgesia ([1]; 1 h after administration, dose 20 mg./kg., 8 rats per dose): 1
Number of Rats with Analgesia ([1]; 2 h after administration, dose 2 mg./kg., 10 rats per dose): 2
Number of Rats with Analgesia ([1]; 2 h after administration, dose 4 mg./kg., 8 rats per dose): 2
Number of Rats with Analgesia ([1]; 2 h after administration, dose 4 mg./kg., 10 rats per dose): 1
Number of Rats with Analgesia ([1]; 2 h after administration, dose 5 mg./kg., 8 rats per dose): 1
Number of Rats with Analgesia ([1]; 2 h after administration, dose 8 mg./kg., 8 rats per dose): 1
Number of Rats with Analgesia ([1]; 2 h after administration, dose 8 mg./kg., 10 rats per dose): 4
Number of Rats with Analgesia ([1]; 2 h after administration, dose 10 mg./kg., 8 rats per dose): 1
Number of Rats with Analgesia ([1]; 2 h after administration, dose 16 mg./kg., 8 rats per dose): 4
Number of Rats with Analgesia ([1]; 2 h after administration, dose 20 mg./kg., 8 rats per dose): 4
Number of Rats with Analgesia ([1]; 3 h after administration, dose 2 mg./kg., 10 rats per dose): 2
Number of Rats with Analgesia ([1]; 3 h after administration, dose 4 mg./kg., 8 rats per dose): 1
Number of Rats with Analgesia ([1]; 3 h after administration, dose 4 mg./kg., 10 rats per dose): 0
Number of Rats with Analgesia ([1]; 3 h after administration, dose 5 mg./kg., 8 rats per dose): 2
Number of Rats with Analgesia ([1]; 3 h after administration, dose 8 mg./kg., 8 rats per dose): 3
Number of Rats with Analgesia ([1]; 3 h after administration, dose 8 mg./kg., 10 rats per dose): 5
Number of Rats with Analgesia ([1]; 3 h after administration, dose 10 mg./kg., 8 rats per dose): 4
Number of Rats with Analgesia ([1]; 3 h after administration, dose 16 mg./kg., 8 rats per dose): 6
Number of Rats with Analgesia ([1]; 3 h after administration, dose 20 mg./kg., 8 rats per dose): 7
Number of Rats with Analgesia ([1]; 4 h after administration, dose 2 mg./kg., 10 rats per dose): 0
Number of Rats with Analgesia ([1]; 4 h after administration, dose 4 mg./kg., 8 rats per dose): 0
Number of Rats with Analgesia ([1]; 4 h after administration, dose 4 mg./kg., 10 rats per dose): 0
Number of Rats with Analgesia ([1]; 4 h after administration, dose 5 mg./kg., 8 rats per dose): 1
Number of Rats with Analgesia ([1]; 4 h after administration, dose 8 mg./kg., 8 rats per dose): 1
Number of Rats with Analgesia ([1]; 4 h after administration, dose 8 mg./kg., 10 rats per dose): 3
Number of Rats with Analgesia ([1]; 4 h after administration, dose 10 mg./kg., 8 rats per dose): 4
Number of Rats with Analgesia ([1]; 4 h after administration, dose 16 mg./kg., 8 rats per dose): 3
Number of Rats with Analgesia ([1]; 4 h after administration, dose 20 mg./kg., 8 rats per dose): 7
Number of Rats with Analgesia ([1]; 5 h after administration, dose 2 mg./kg., 10 rats per dose): 0
Number of Rats with Analgesia ([1]; 5 h after administration, dose 4 mg./kg., 8 rats per dose): 0
Number of Rats with Analgesia ([1]; 5 h after administration, dose 4 mg./kg., 10 rats per dose): 1
Number of Rats with Analgesia ([1]; 5 h after administration, dose 5 mg./kg., 8 rats per dose): 0
Number of Rats with Analgesia ([1]; 5 h after administration, dose 8 mg./kg., 8 rats per dose): 0
Number of Rats with Analgesia ([1]; 5 h after administration, dose 8 mg./kg., 10 rats per dose): 2
Number of Rats with Analgesia ([1]; 5 h after administration, dose 10 mg./kg., 8 rats per dose): 2
Number of Rats with Analgesia ([1]; 5 h after administration, dose 16 mg./kg., 8 rats per dose): 2
Number of Rats with Analgesia ([1]; 5 h after administration, dose 20 mg./kg., 8 rats per dose): 5
Number of Rats with Analgesia ([1]; 6 h after administration, dose 2 mg./kg., 10 rats per dose): 0
Number of Rats with Analgesia ([1]; 6 h after administration, dose 4 mg./kg., 8 rats per dose): 0
Number of Rats with Analgesia ([1]; 6 h after administration, dose 4 mg./kg., 10 rats per dose): 0
Number of Rats with Analgesia ([1]; 6 h after administration, dose 5 mg./kg., 8 rats per dose): 0
Number of Rats with Analgesia ([1]; 6 h after administration, dose 8 mg./kg., 8 rats per dose): 0
Number of Rats with Analgesia ([1]; 6 h after administration, dose 8 mg./kg., 10 rats per dose): 1
Number of Rats with Analgesia ([1]; 6 h after administration, dose 10 mg./kg., 8 rats per dose): 0
Number of Rats with Analgesia ([1]; 6 h after administration, dose 16 mg./kg., 8 rats per dose): 1
Number of Rats with Analgesia ([1]; 6 h after administration, dose 20 mg./kg., 8 rats per dose): 4
Total Positives ([1]; sum over 1/2, 1 and 2 h, dose 5 mg./kg., 8 rats per dose): 1
Total Positives ([1]; sum over 1/2, 1 and 2 h, dose 10 mg./kg., 8 rats per dose): 1
Total Positives ([1]; sum over 1 and 2 h, dose 4 mg./kg., 10 rats per dose): 1
No. Dead [2]: 14

Source: patent EP0017102A1, “Composition containing a phenyl benzoic acid compound and acetaminophen combination for the treatment of pain and inflammation and process for preparing the same” (Merck & Co., Inc., priority 1979, dated 1980)
